Measured values from patent US11197878B2, “Anti-inflammatory composition including novel quercetin-based compound” (AMOREPACIFIC CORPORATION, priority 2017, dated 2021).

Columns and labels:
IL-8 (Interleukin 8) = assay: Test for inhibiting generation of IL-8 in H2O2-stimulated fibroblast (ELISA); format: cell-based
Procedure: (§1) Fibroblast (PromoCell, Germany) was inoculated in a 6-well culturing plate at a concentration of 1×10^5 cells, and cultured in a 5% CO2 incubator at 37° C. for 24 hours. The well was treated with H2O2 500 μM and stimulated for 24 hours, and then were treated with quercetin3-O-[3-O″-(E)-p-coumaroyl][β-D-glucopyranosyl-(1→3)-O-α-L-rhamnopyranosyl-(1→6)-O-β-D-glucopyranoside] (‘New Material 31’) and quercetin3-O-[3-O″-(E)-p-coumaroyl][α-L-rhamnopyranosyl-(1→6)-O-β-D-glucopyranoside]) (‘New Material 32’) at a concentration of 100 μg/ml, respectively, and reacted for 48 hours. After the reaction was finished, the culture medium was collected and the ELISA analysis was performed. Herein, α-bisabolol, which is the material typically used as an anti-inflammatory agent and abirritant, was used as a control. As PGE2, a kit of Assay Design® was used, and as IL-6 and IL-8, a kit of Endogen® was used, and the test was carried out according to the methods prescribed in the manuals of the respective companies. (‘31’ refers to New Material 31, and ‘32’ refers to New Material 32) Inhibition effect={1−(test sample−control)/(H2O2−control)}×100 <Equation 1>

PGE2 (Prostaglandin E2) = assay: Test for inhibiting generation of PGE2 in H2O2-stimulated fibroblast (ELISA); format: cell-based
Procedure: as §1

skin = assay: Test for skin accumulated stimulus, HRIPT (Human repeated insult patch tests); format: in vivo; conditions: for Number of examinees who exhibited ±, +, or ++ reactivity, 1st: 1st patch; for Number of examinees who exhibited ±, +, or ++ reactivity, 2nd: 2nd patch; for Number of examinees who exhibited ±, +, or ++ reactivity, 3rd: 3rd patch; for Number of examinees who exhibited ±, +, or ++ reactivity, 4th: 4th patch; for Number of examinees who exhibited ±, +, or ++ reactivity, 5th: 5th patch; for Number of examinees who exhibited ±, +, or ++ reactivity, 6th: 6th patch; for Number of examinees who exhibited ±, +, or ++ reactivity, 7th: 7th patch; for Number of examinees who exhibited ±, +, or ++ reactivity, 8th: 8th patch; for Number of examinees who exhibited ±, +, or ++ reactivity, 9th: 9th patch
Procedure: HRIPT (Human repeated insult patch tests) was conducted in order to identify skin accumulated stimulus of quercetin3-O-[3-O″-(E)-p-coumaroyl][β-D-glucopyranosyl-(1→3)-O-α-L-rhamnopyranosyl-(1→6)-O-β-D-glucopyranoside] and quercetin3-O-[3-O″-(E)-p-coumaroyl][α-L-rhamnopyranosyl-(1→6)-O-β-D-glucopyranoside] and to calculate the concentration range that can be used in skin. Specifically, 15 healthy adult examinees were randomly selected, and test compositions in which the compounds were respectively comprised in an amount of 0.5 wt. %, 1 wt. %, and 3 wt. % (the compositions for skin, comprising an emulsifying agent, a stabilizer, purified water, etc. in addition to the compounds) were dropped in the amount of 20 μl per chamber (IQ chamber, Epitest Ltd, Finland), and patched on the right site of the upper back of the examinees, and then, after 24 hours, the patch was replaced with a new patch. A total of 9 patches were conducted, three times a week for total 3 weeks, in such manner, the skin reactions before and after patch were examined every time, and the skin reactions until 48 hours after removing the final patch were observed, and the average reactivity was observed. The skin reaction was determined according to the criteria of International Contact Dermatitis Research Group (ICDRG). In the above table, “New Material 31” refers to quercetin3-O-[3-O″-(E)-p-coumaroyl][β-D-glucopyranosyl-(1→3)-O-α-L-rhamnopyranosyl-(1→6)-O-β-D-glucopyranoside], and “New Material 32” refers to quercetin3-O-[3-O″-(E)-p-coumaroyl][α-L-rhamnopyranosyl-(1→6)-O-β-D-glucopyranoside].

[1] = fibroblast culture medium, H2O2 500 μM 24 hours, then test material (31, 32: 100 μg/ml) 48 hours, ELISA

## C[C@@H]1O[C@@H](OC[C@H]2O[C@@H](Oc3c(-c4ccc(O)c(O)c4)oc4cc(O)cc(O)c4c3=O)[C@H](O)[C@@H](OC(=O)/C=C/c3ccc(O)cc3)[C@@H]2O)[C@H](O)[C@H](O)[C@H]1O [New Material 32, quercetin3-O-[3-O″-(E)-p-coumaroyl][α-L-rhamnopyranosyl-(1→6)-O-β-D-glucopyranoside]]
IL-8 (Interleukin 8); Fibroblast, 100 μg/ml, {1−(test sample−control)/(H2O2−control)}×100, read-out: Inhibition effect according to Equation 1, IL-8
  inhibition at 100 µg/mL: 61.1%
IL-8 (Interleukin 8); [1]
  IL-8: 235 pg/mL
PGE2 (Prostaglandin E2); Fibroblast, 100 μg/ml, {1−(test sample−control)/(H2O2−control)}×100, read-out: Inhibition effect according to Equation 1, PGE2
  inhibition at 100 µg/mL: 48.3%
PGE2 (Prostaglandin E2); [1]
  PGE2: 280 pg/mL
skin; 0.5 wt. %, line 1 of 3 (±)
  Number of examinees who exhibited ±, +, or ++ reactivity, 1st: 0 number
  Number of examinees who exhibited ±, +, or ++ reactivity, 2nd: 0 number
  Number of examinees who exhibited ±, +, or ++ reactivity, 3rd: 0 number
  Number of examinees who exhibited ±, +, or ++ reactivity, 4th: 0 number
  Number of examinees who exhibited ±, +, or ++ reactivity, 5th: 0 number
  Number of examinees who exhibited ±, +, or ++ reactivity, 6th: 0 number
  Number of examinees who exhibited ±, +, or ++ reactivity, 7th: 0 number
  Number of examinees who exhibited ±, +, or ++ reactivity, 8th: 0 number
  Number of examinees who exhibited ±, +, or ++ reactivity, 9th: 0 number
skin; 0.5 wt. %, line 2 of 3 (+)
  Number of examinees who exhibited ±, +, or ++ reactivity, 1st: 0 number
  Number of examinees who exhibited ±, +, or ++ reactivity, 2nd: 0 number
  Number of examinees who exhibited ±, +, or ++ reactivity, 3rd: 0 number
  Number of examinees who exhibited ±, +, or ++ reactivity, 4th: 0 number
  Number of examinees who exhibited ±, +, or ++ reactivity, 5th: 0 number
  Number of examinees who exhibited ±, +, or ++ reactivity, 6th: 0 number
  Number of examinees who exhibited ±, +, or ++ reactivity, 7th: 0 number
  Number of examinees who exhibited ±, +, or ++ reactivity, 8th: 0 number
  Number of examinees who exhibited ±, +, or ++ reactivity, 9th: 0 number
skin; 0.5 wt. %, line 3 of 3 (++)
  Number of examinees who exhibited ±, +, or ++ reactivity, 1st: 0 number
  Number of examinees who exhibited ±, +, or ++ reactivity, 2nd: 0 number
  Number of examinees who exhibited ±, +, or ++ reactivity, 3rd: 0 number
  Number of examinees who exhibited ±, +, or ++ reactivity, 4th: 0 number
  Number of examinees who exhibited ±, +, or ++ reactivity, 5th: 0 number
  Number of examinees who exhibited ±, +, or ++ reactivity, 6th: 0 number
  Number of examinees who exhibited ±, +, or ++ reactivity, 7th: 0 number
  Number of examinees who exhibited ±, +, or ++ reactivity, 8th: 0 number
  Number of examinees who exhibited ±, +, or ++ reactivity, 9th: 0 number
skin; 0.5 wt. %, 9 patches over 3 weeks, 15 examinees, less than 3 is considered a stable composition
  average reactivity: 0
skin; 1 wt. %, line 1 of 3 (±)
  Number of examinees who exhibited ±, +, or ++ reactivity, 1st: 0 number
  Number of examinees who exhibited ±, +, or ++ reactivity, 2nd: 0 number
  Number of examinees who exhibited ±, +, or ++ reactivity, 3rd: 0 number
  Number of examinees who exhibited ±, +, or ++ reactivity, 4th: 0 number
skin; 1 wt. %, line 2 of 3 (+)
  Number of examinees who exhibited ±, +, or ++ reactivity, 1st: 0 number
  Number of examinees who exhibited ±, +, or ++ reactivity, 2nd: 0 number
  Number of examinees who exhibited ±, +, or ++ reactivity, 3rd: 0 number
  Number of examinees who exhibited ±, +, or ++ reactivity, 4th: 0 number
skin; 1 wt. %, line 3 of 3 (++)
  Number of examinees who exhibited ±, +, or ++ reactivity, 1st: 0 number
  Number of examinees who exhibited ±, +, or ++ reactivity, 2nd: 0 number
  Number of examinees who exhibited ±, +, or ++ reactivity, 3rd: 0 number
  Number of examinees who exhibited ±, +, or ++ reactivity, 4th: 0 number
